Experimental data as given in US8211892B2, “Tetrahydroquinoxaline urea derivatives” (Sanofi-Aventis, priority 2008, dated 2012).

Experiments:
[1] = molecular target: T1, recombinant 11βHSD1 protein (Homo sapiens, UniProt P28845); test: SPA (Scintillation Proximity Assay) test of in vitro inhibition of the enzyme 11βHSD1, 384-well format; format: biochemical; details: 3H-cortisone and NADPH, SPA beads, cortisol formed; read-out: IC50 (concentration which inhibits 50% of the activity of 11βHSD1)
T1 construct: made in house; host or cells: Saccharomyces cerevisiae
Excerpt: The compounds according to the invention formed the subject of pharmacological assays which make it possible to determine their inhibiting effect on the enzyme 11βHSD1, which is involved in the metabolism of lipids and the metabolism of glucose.
These assays consisted in measuring the in vitro inhibiting activity of the compounds of the invention on the enzyme 11βHSD1 by virtue of an SPA (Scintillation Proximity Assay) test in 384-well format. The recombinant 11βHSD1 protein was produced in the yeast S. cerevisiae. The reaction was carried out by incubating the enzyme in the presence of ^3H-cortisone and of NADPH, in the absence or in the presence of an increasing concentration of inhibitor. SPA beads coupled to an antimouse antibody, which are preincubated with an anticortisol antibody, made it possible to measure the amount of cortisol formed during the reaction.

[2] = molecular target: T2, 11βHSD1 in the eyes (Homo sapiens, UniProt P28845); details: healthy volunteers, treatment for seven days; cited from earlier work
T2 construct: The 11βHSD1 is located in the nonpigmented epithelial calls; host or cells: healthy volunteers (in vivo, ocular tissue)
T2 sequence (P28845 whole entry): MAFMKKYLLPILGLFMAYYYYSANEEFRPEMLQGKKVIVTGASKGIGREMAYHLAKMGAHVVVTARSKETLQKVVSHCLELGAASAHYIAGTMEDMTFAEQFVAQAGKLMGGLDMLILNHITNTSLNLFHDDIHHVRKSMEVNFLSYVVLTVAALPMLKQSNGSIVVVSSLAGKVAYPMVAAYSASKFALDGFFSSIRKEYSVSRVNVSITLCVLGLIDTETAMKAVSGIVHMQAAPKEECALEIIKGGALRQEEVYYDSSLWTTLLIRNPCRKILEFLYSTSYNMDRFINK

T1 sequence (P28845 whole entry, species assumed): as the sequence (P28845 whole entry) above

Row | IC50 [1] [nM] | melting point [°C] | Compound | reduction of the intraocular pressure (IOP) [2] [%]
1 | 4 | – | CC(C)(C)N1CCN(c2ccc(N3CCN(C(=O)NC4C5CC6CC4CC(C(N)=O)(C6)C5)c4ccccc43)nc2)CC1 (centres unmarked) [compound 128] | –
2 | – | 165 to 200 | CS(=O)(=O)N1CCN(c2ccc(N3CCN(C(=O)N[C@H]4C5CC6CC4C[C@@](F)(C6)C5)c4ccccc43)cc2)CC1 [Compound No. 40, Trans-4-[4-(4-(Methanesulphonyl)Piperazin-1-yl)Phenyl]-3,4-dihydro-2H-quinoxaline-1-carboxylic Acid (5-fluoroadamantan-2-yl)Amide] | –
3 | 17 | 127 | CC(C)N1CCN(C(=O)c2ccc(-c3ccc(N4CCN(C(=O)NC5C6CC7CC5CC(O)(C7)C6)c5ccccc54)cc3)nc2)CC1 (centres unmarked) [compound 27] | –
4 | 624 | 163 to 169 | O=C(c1ccc(-c2csc(N3CCN(C(=O)NC4C5CC6CC(C5)CC4C6)c4ccccc43)n2)cc1)N1CCOCC1 (centres unmarked) [compound 6] | –
5 | 405 | 123 to 125 | O=C(NC1C2CC3CC(C2)CC1C3)N1CCN(c2ccc(OCc3ncccn3)cc2)c2ccccc21 (centres unmarked) [Compound No. 3, 4-[4-(Pyrimidin-2-ylmethoxy)Phenyl]-3,4-dihydro-2H-quinoxaline-1-carboxylic Acid adamantan-2-ylamide] | –
6 | – | – | CC1(C)[C@@H](OC(=O)CCC(=O)O)CC[C@]2(C)[C@H]3C(=O)C=C4[C@@H]5C[C@@](C)(C(=O)O)CC[C@]5(C)CC[C@@]4(C)[C@]3(C)CC[C@@H]12 [carbenoxolone] | 18
7 | 8 | 230 | NC(=O)C12CC3CC(C1)C(NC(=O)N1CCN(c4ccc(N5CCN(S(=O)(=O)C6CCNCC6)CC5)cc4)c4ccccc41)C(C3)C2 (centres unmarked) [compound 95] | –
8 | – | 160 | CS(=O)(=O)N1CCN(c2ccc(N3CCN(C(=O)N[C@H]4C5CC6CC4C[C@@](CO)(C6)C5)c4ccccc43)cc2)CC1 [Compound No. 21, Trans-4-[4-(4-(Methanesulphonyl)Piperazin-1-yl)Phenyl]-3,4-dihydro-2H-quinoxaline-1-carboxylic Acid (5-(hydroxymethyl)Adamantan-2-yl)Amide] | –
9 | 130 | 250 | CC(=O)N[C@]12CC3CC(C1)[C@H](NC(=O)N1CCN(c4ccc(N5CCN(S(C)(=O)=O)CC5)cc4)c4ccccc41)C(C3)C2 [Compound No. 137, Trans-4-[4-(4-(Methanesulphonyl)Piperazin-1-yl)Phenyl]-3,4-dihydro-2H-quinoxaline-1-carboxylic Acid (5-acetylaminoadamantan-2-yl)Amide] | –
10 | – | 188 | N#C[C@]12CC3CC(C1)[C@H](NC(=O)N1CCN(c4ccc(N5CCN(S(=O)(=O)C6CC6)CC5)cn4)c4ccccc41)C(C3)C2 [compound 165, Trans-4-[5-(4-(Cyclopropanesulphonyl)Piperazin-1-yl)Pyridin-2-yl]-3,4-dihydro-2H-quinoxaline-1-carboxylic Acid (5-cyanoadamantan-2-yl)Amide] | –
11 | – | 131 | O=C(N[C@H]1C2CC3CC1C[C@@](O)(C3)C2)N1CCN(c2ccc(N3CCC(O)CC3)cc2)c2ccccc21 [Compound No. 51, Trans-4-[4-(4-Hydroxypiperidin-1-yl)Phenyl]-3,4-dihydro-2H-quinoxaline-1-carboxylic Acid (5-hydroxyadamantan-2-yl)Amide] | –
12 | – | 204 | CS(=O)(=O)CCN1CCN(c2ccc(N3CCN(C(=O)N[C@H]4C5CC6CC4C[C@@](C(N)=O)(C6)C5)c4ccccc43)nc2)CC1 [compound 178, Trans-4-{5-[4-(2-(Methanesulphonyl)Ethyl)Piperazin-1-yl]-pyridin-2-yl}-3,4-dihydro-2H-quinoxaline-1-carboxylic Acid (5-carbamoyladamantan-2-yl)Amide] | –
13 | 187 | 127 | CS(=O)(=O)N1CCC2(CCN(c3ccc(N4CCN(C(=O)NC5C6CC7CC5CC(O)(C7)C6)c5ccccc54)cc3)C2)C1 (centres unmarked) [compound 132] | –
14 | 8 | 161 | O=C(NC1C2CC3CC1CC(O)(C3)C2)N1CCN(c2ccc(N3CCN(C4CC4)CC3)cn2)c2ccccc21 (centres unmarked) [compound 118] | –
15 | – | 228 | CC(C)(C)N1CCC(c2ccc(N3CCN(C(=O)N[C@H]4C5CC6CC4C[C@@](C(N)=O)(C6)C5)c4ccccc43)nc2)CC1 [compound 170, Trans-4-(1′-(tert-Butyl)-1′,2′,3′,4′,5′,6′-hexahydro-[3,4′]bipyridinyl-6-yl)-3,4-dihydro-2H-quinoxaline-1-carboxylic Acid (5-carbamoyladamantan-2-yl)Amide] | –
16 | 28 | 160 | CS(=O)(=O)N1CCC(O)(c2ccc(N3CCN(C(=O)N[C@H]4C5CC6CC4C[C@@](O)(C6)C5)c4ccccc43)cc2)CC1 [Compound No. 16, Trans-4-[4-(4-Hydroxy-1-(methanesulphonyl)Piperidin-4-yl)Phenyl]-3,4-dihydro-2H-quinoxaline-1-carboxylic Acid (5-hydroxy-adamantan-2-yl)Amide] | –
17 | 49 | 103 | CS(=O)(=O)N1CC=C(c2ccc(N3CCN(C(=O)NC4C5CC6CC4CC(O)(C6)C5)c4ccccc43)cc2)CC1 (centres unmarked) [compound 15] | –
18 | 94 | 95 | O=C(NC1C2CC3CC1CC(O)(C3)C2)N1CCN(c2ccc(N3CCC(F)(F)CC3)cc2)c2ccccc21 (centres unmarked) [compound 30] | –
19 | – | 194 to 200 | CC(C)(CO)N1CCN(c2ccc(N3CCN(C(=O)N[C@H]4C5CC6CC4C[C@@](C(N)=O)(C6)C5)c4ccccc43)cc2)CC1 [compound 152, Trans-4-{4-[4-(2-Hydroxy-1,1-dimethylethyl)Piperazin-1-yl]phenyl}-3,4-dihydro-2H-quinoxaline-1-carboxylic Acid (5-carbamoyladamantan-2-yl)Amide] | –
20 | 7 | 193 to 194 | CC(C)Oc1ccc(-c2ccc(N3CCN(C(=O)NC4C5CC6CC4CC(C(N)=O)(C6)C5)c4ccccc43)cc2)nc1 (centres unmarked) [compound 85] | –
21 | 19 | 228 | CC(C)(C)N1CCN(c2ccc(N3CCN(C(=O)NC4C5CC6CC4CC(C(N)=O)(C6)C5)c4ccccc43)cc2)CC1 (centres unmarked) [compound 96] | –
22 | 28 | 197 | O=C(NC1C2CC3CC1CC(O)(C3)C2)N1CCN(c2ccc(Oc3nccc(C(F)(F)F)n3)cc2)c2ccccc21 (centres unmarked) [compound 14] | –
23 | – | 138 to 160 | CCS(=O)(=O)N1CCN(c2ccc(N3CCN(C(=O)N[C@H]4C5CC6CC4C[C@@](O)(C6)C5)c4ccccc43)cc2)CC1 [compound 34, trans-4-[4-(4-(Ethanesulphonyl)Piperazin-1-yl)Phenyl]-3,4-dihydro-2H-quinoxaline-1-carboxylic Acid (5-hydroxyadamantan-2-yl)Amide] | –
24 | 7 | – | COCCOCCS(=O)(=O)N1CCN(c2ccc(N3CCN(C(=O)NC4C5CC6CC4CC(C(N)=O)(C6)C5)c4ccccc43)cc2)CC1 (centres unmarked) [compound 125] | –
25 | 7 | 188 | O=C(NC1C2CC3CC1CC(O)(C3)C2)N1CCN(c2ccc(N3CCN(S(=O)(=O)C4CCC4)CC3)cn2)c2ccccc21 (centres unmarked) [compound 119] | –
26 | – | 175 | CCS(=O)(=O)N1CCN(c2ccc(N3CCN(C(=O)N[C@H]4C5CC6CC4C[C@@](C(N)=O)(C6)C5)c4ccccc43)nc2)CC1 [Compound No. 149, Trans-4-[5-(4-(Ethanesulphonyl)Piperazin-1-yl)Pyridin-2-yl]-3,4-dihydro-2H-quinoxaline-1-carboxylic Acid (5-carbamoyladamantan-2-yl)Amide] | –
27 | – | 209 | CC(C)CN1CCN(c2ccc(N3CCN(C(=O)N[C@H]4C5CC6CC4C[C@@](C(N)=O)(C6)C5)c4ccccc43)nc2)CC1 [compound 158, Trans-4-[5-(4-Isobutylpiperazin-1-yl)Pyridin-2-yl]-3,4-dihydro-2H-quinoxaline-1-carboxylic Acid (5-carbamoyladamantan-2-yl)Amide] | –
